For 3 compounds, IC50 results are on record in ChEMBL document CHEMBL4418303, “1-cyano-pyrrolidine derivatives as inhibitors of usp30” (2017).

As usually defined, the IC50 is the concentration needed to halve the response being measured. A low value points to greater potency in that assay.

This test has as its target T1, Ubiquitin carboxyl-terminal hydrolase 30 (Homo sapiens, UniProt Q70CQ3).
T1 sequence (Q70CQ3 whole entry): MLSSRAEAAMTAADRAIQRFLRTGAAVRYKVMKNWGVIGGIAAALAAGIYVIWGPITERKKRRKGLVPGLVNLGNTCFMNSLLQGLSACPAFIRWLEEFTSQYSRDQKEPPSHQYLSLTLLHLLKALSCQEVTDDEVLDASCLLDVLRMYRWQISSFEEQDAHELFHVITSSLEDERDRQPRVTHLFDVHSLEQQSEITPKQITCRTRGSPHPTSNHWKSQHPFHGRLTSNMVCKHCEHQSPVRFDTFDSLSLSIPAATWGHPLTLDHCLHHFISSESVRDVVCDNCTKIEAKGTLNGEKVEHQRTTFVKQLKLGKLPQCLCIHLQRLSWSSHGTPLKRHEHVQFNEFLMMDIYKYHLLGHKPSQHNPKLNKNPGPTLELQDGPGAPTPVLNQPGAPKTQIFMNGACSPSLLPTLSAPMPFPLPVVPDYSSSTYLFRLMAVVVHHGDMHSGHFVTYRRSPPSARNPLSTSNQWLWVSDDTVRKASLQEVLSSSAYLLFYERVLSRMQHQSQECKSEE
The test can be described thus: Inhibition of untagged human USP30 catalytic domain (57 to 517 residues) expressed in Escherichia coli using TAMRA labeled ubiquitin peptide as substrate preincubated for 30 min followed by substrate addition and measured after 2 hrs by fluorescence polarization assay. In general terms: Polarisation of emitted light reports the rotation of a fluorescent probe.
For the compound `N#CN1CC[C@@H](N2Cc3ccnc(N4CCOCC4)c3NS2(=O)=O)C1`, the IC50 was in the range of 1000 to 10000 nM.
In turn, `CN1c2ccc(-c3ccccc3)cc2CN([C@@H]2CCN(C#N)C2)S1(=O)=O` had an IC50 of 100 to 1000 nM.
In turn, `CN1c2ccccc2CN([C@@H]2CCN(C#N)C2)S1(=O)=O` came in with an IC50 of 1000 to 10000 nM.
